Measured values from ChEMBL document CHEMBL4311960, “Two optimized antimicrobial peptides with therapeutic potential for clinical antibiotic-resistant Staphylococcus aureus” (Eur J Med Chem, 2019).

Legend:
[1] = Cytotoxicity against human HEK293T cells assessed as cell viability at 640 ug/ml incubated for 48 hrs by MTT assay relative to control; format: cell-based, HEK-293T; conditions: read-out: Activity
[2] = system: Candida albicans; experiment: Antifungal activity against Candida albicans ATCC 5314 assessed as reduction in fungal growth incubated for 24 hrs by serial dilution method; format: functional; conditions: ATCC 5314, 24 h, read-out: MIC
[3] = Hemolytic activity in mouse Erythrocyte at 640 ug/ml incubated for 1 hr relative to control; format: ADME, cell-based; conditions: mouse erythrocytes, read-out: %max
[4] = system: Streptococcus sanguinis; experiment: Antibacterial activity against Streptococcus sanguinis ATCC 10556 assessed as reduction in bacterial growth incubated for 24 hrs by serial dilution method; format: functional; conditions: ATCC 10556, 24 h
[5] = system: Staphylococcus aureus; experiment: Antibacterial activity against Staphylococcus aureus ATCC 25923 assessed as reduction in bacterial growth incubated for 24 hrs by serial dilution method; format: functional; conditions: ATCC 25923, 24 h
[6] = system: Streptococcus mutans; experiment: Antibacterial activity against Streptococcus mutans UA159 assessed as reduction in bacterial growth incubated for 24 hrs by serial dilution method; format: functional; conditions: UA159, 24 h
[7] = system: Erythrocyte; experiment: Hemolytic activity in mouse Erythrocyte assessed as HC10 incubated for 1 hr; format: ADME, cell-based
[8] = Hemolytic activity in mouse Erythrocyte assessed as HC50 incubated for 1 hr; format: ADME, cell-based; conditions: mouse erythrocytes
[9] = system: Staphylococcus aureus; experiment: Antibacterial activity against methicillin-resistant Staphylococcus aureus ATCC 18466 assessed as reduction in bacterial growth incubated for 24 hrs by serial dilution method; format: functional; conditions: ATCC 18466, 24 h, read-out: MIC
[10] = Cytotoxicity against human HEK293T cells assessed as cell viability at 5 to 640 ug/ml incubated for 48 hrs by MTT assay relative to control; format: cell-based, HEK-293T; conditions: read-out: Activity

Substance	viability at 48 h, 640 ug/ml [1]	MIC [2]	hemolysis at 1 h, 640 ug/ml [3]	MIC ([4]; read-out: MIC)	MIC ([5]; read-out: MIC)	MIC ([6]; read-out: MIC)	HC10 [7]	HC50 at 1 h [8]	MIC [9]	viability at 48 h [10]	MIC [5]	MIC [6]	MIC [4]
H-WVRKVRRWWKKVKKVVKK-NH2	65.7%	< 64 µg/mL	25.5%	< 64 µg/mL	< 64 µg/mL	< 64 µg/mL	80.04 µg/mL	> 640 µg/mL	< 64 µg/mL	–	–	–	–
H-WYERLINRKFKWLKGRLSKK-NH2	–	< 64 µg/mL	17.3%	< 64 µg/mL	–	–	178.82 µg/mL	> 640 µg/mL	< 64 µg/mL	70 to 80%	> 64 µg/mL	> 64 µg/mL	–
H-YEIKINRHFKTLKKNLKK-NH2	–	< 64 µg/mL	7.94%	–	< 64 µg/mL	–	> 640 µg/mL	> 640 µg/mL	< 64 µg/mL	70 to 80%	–	> 64 µg/mL	> 64 µg/mL
H-YFRTIRRFFKKLFKTLKK-NH2	–	64 µg/mL	10.3%	< 64 µg/mL	64 µg/mL	< 64 µg/mL	640 µg/mL	> 640 µg/mL	64 µg/mL	70 to 80%	–	–	–
H-YIRKINRHFKTLKKNLKK-NH2	–	< 64 µg/mL	8.07%	< 64 µg/mL	< 64 µg/mL	–	> 640 µg/mL	> 640 µg/mL	< 64 µg/mL	70 to 80%	–	> 64 µg/mL	–
H-YIRKIRRFFKKLNKNLKK-NH2	–	< 64 µg/mL	9.86%	–	–	< 64 µg/mL	> 640 µg/mL	> 640 µg/mL	< 64 µg/mL	70 to 80%	> 64 µg/mL	–	> 64 µg/mL
H-YIRKIRRFFKKRFKFRKK-NH2	–	32 µg/mL	8.21%	64 µg/mL	64 µg/mL	16 µg/mL	> 640 µg/mL	> 640 µg/mL	32 µg/mL	70 to 80%	–	–	–
H-YIRKIRRFFKTLNKNLKK-NH2	–	< 64 µg/mL	7.17%	< 64 µg/mL	–	32 µg/mL	> 640 µg/mL	> 640 µg/mL	< 64 µg/mL	70 to 80%	> 64 µg/mL	–	–
